{
  "source": "patent US10328003B2",
  "about": "“Solubilizing agents for active or functional organic compounds” (ISP INVESTMENTS LLC, priority 2015, dated 2019)",
  "key": {"[1]": {"description": "(§1) Different samples of the current solubilizing compound cycloalkyl toluate was combined with available sunscreens Escalol S, avobenzone and oxybenzone at 25° C. […] Solubility was checked for cyclohexyl ester in various sunscreen actives such as bemotrizinol, ethylhexyl triazone, avobenzone & benzophenone-3 in comparison to phenethyl benzoate."}, "[2]": {"assay": "Comparison of solubilizers combined with sunscreens: clear solution or crystal formation", "assay_type": "physicochemical", "conditions": "25° C., FIG. 6", "description": "as §1"}},
  "data": [
    {"compound": "Cc1cccc(C(=O)OCC2CCCCC2)c1", "note": "[Cyclohexylmethanol 3-Toluate]", "values": [
      {"measurement": "Solubility of Escalol S at 25° C.", "setting": "[1]", "result": 30, "unit": "%"}
    ]},
    {"compound": "Cc1ccc(C(=O)OC2CCCCC2)cc1", "note": "[Cyclohexyl 4-Toluate]", "values": [
      {"measurement": "Solubility of Escalol S at 25° C.", "setting": "[1]", "result": 36, "unit": "%"}
    ]},
    {"compound": "Cc1cccc(C(=O)OC2CCCC2)c1", "note": "[Cyclopentyl 3-Toluate]", "values": [
      {"measurement": "Solubility of Escalol S at 25° C.", "setting": "[1]", "result": 34, "unit": "%"}
    ]},
    {"compound": "Cyclohexyl Toluate", "values": [
      {"measurement": "Solubility @ 25° C. Avobenzone", "setting": "[1]", "result": 25},
      {"measurement": "Solubility @ 25° C. Escalol S", "setting": "[1]", "result": 36},
      {"measurement": "Solubility @ 25° C. Oxybenzone", "setting": "[1]", "result": 32},
      {"measurement": "Solubility of Avobenzone at 25° C.", "setting": "[1]", "result": 25, "unit": "%"},
      {"measurement": "Solubility of Escalol S at 25° C.", "setting": "[1]", "result": 36, "unit": "%"},
      {"measurement": "Solubility percentages of sunscreen active in the solubilizer", "setting": "[1]", "result": "22-33%"}
    ]},
    {"compound": "Cc1cccc(C(=O)OC2CCCCC2)c1", "note": "[Cyclohexyl 3-Toluate]", "values": [
      {"measurement": "Solubility of Escalol S at 25° C.", "setting": "[1]", "result": 35, "unit": "%"}
    ]},
    {"compound": "Cc1ccccc1C(=O)OC1CCCCC1", "note": "[Cyclohexyl 2-Toluate]", "values": [
      {"measurement": "Solubility of Escalol S at 25° C.", "setting": "[1]", "result": 37, "unit": "%"}
    ]},
    {"compound": "O=C(OCCc1ccccc1)c1ccccc1", "note": "[Phenethyl benzoate, 2-phenylethyl benzoate, reference compound]", "values": [
      {"measurement": "Solubility @ 25° C. Avobenzone", "setting": "[1]", "result": 20},
      {"measurement": "Solubility @ 25° C. Escalol S", "setting": "[1]", "result": 22},
      {"measurement": "Solubility @ 25° C. Oxybenzone", "setting": "[1]", "result": 34},
      {"measurement": "Solution appearance when combined with Escalol S, avobenzone and oxybenzone", "setting": "[2]", "result": "crystal formations"}
    ]}
  ]
}
